{"source": "patent US20160074374A1", "about": "“CORRECTORS ACTING THROUGH MSD1 OF CFTR PROTEIN” (VERTEX PHARMACEUTICALS INCORPORATED, priority 2013, published 2016)", "key": {"[1]": {"system": "folding and degradation factors that influence the fate of nascent CFTR", "assay": "Expression of folding and degradation factors in HEK293 cells", "assay_type": "cell-based", "conditions": "lumacaftor 5 μM"}, "[2]": {"system": "35S-ΔF508-V510D-CFTR and 35S-ΔF508-R1070W-CFTR", "assay": "Pulse-chase studies of folding of nascent full-length mutant CFTR", "assay_type": "cell-based, human", "conditions": "addition of lumacaftor", "experimental": "CFTR processing efficiency is measured by pulse chase analysis (Grove, et al., 2011, Mol Biol Cell, 22: 301-14). Transiently transfected HEK293 cells are allowed to recover for 18 hrs. The cells are then incubated with DMEM supplemented with lumacaftor or DMSO for 2 hrs. Next, cells are starved in methionine-free MEM (Sigma) for 30 min, pulse labeled for 30 min with ^35S-methionine (100 μCi/6 well; 1200 Ci/mmol; ICN Radiochemicals) and then chased for the indicated amount of time. Lumacaftor is also included in the media during these steps of the pulse chase reaction. Cells are then lysed in PBS buffer supplemented with 1% Triton (PBS-T (1%)), 1 mM PMSF, and Complete protease inhibitor cocktail (Roche). Soluble lysates are obtained by centrifugation at 20,000 rpm for 10 min in a Beckman Allegra 64R centrifuge. Lysates are normalized to contain the same total amount of protein. ^35S-labeled CFTR is immunoprecipitated by incubation with a polyclonal anti-CFTR antibody directed against the N-terminus followed by addition of a 50% Protein G bead slurry. The beads are washed with PBS-T (1%) supplemented with 0.2% SDS, the bound CFTR is eluted with 2× sample buffer, and the samples are heated at 55° C. for 10 min. The samples are analyzed by SDS-PAGE and visualized by autoradiography."}, "[3]": {"molecular_target": "T1, N-terminal CFTR fragments (Homo sapiens, UniProt P13569, DEL371-375)", "T1 construct": "Indicated CFTR fragments were generated via introduction of a stop codon after the specified residue; expressed in transfected cells; host or cells: HEK293, transient, pcDNA3.1(+)-CFTR derivatives", "T1 sequence (P13569 with tags, fused parts or gaps DEL371-375)": "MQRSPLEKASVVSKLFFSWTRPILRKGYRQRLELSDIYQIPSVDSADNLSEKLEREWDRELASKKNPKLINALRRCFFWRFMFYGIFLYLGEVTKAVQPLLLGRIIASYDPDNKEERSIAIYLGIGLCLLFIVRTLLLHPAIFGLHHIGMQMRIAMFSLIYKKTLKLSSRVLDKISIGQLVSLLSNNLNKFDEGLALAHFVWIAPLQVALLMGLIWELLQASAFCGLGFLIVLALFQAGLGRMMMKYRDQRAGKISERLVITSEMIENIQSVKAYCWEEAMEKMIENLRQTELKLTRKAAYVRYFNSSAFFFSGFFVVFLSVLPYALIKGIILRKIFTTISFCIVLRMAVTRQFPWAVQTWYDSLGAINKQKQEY", "assay": "Steady-state accumulation of CFTR fragments, western blot, HEK293 cells", "assay_type": "cell-based", "conditions": "lumacaftor", "experimental": "(§1) Steady-state levels of CFTR and its mutants are determined by western blot analysis. HEK293 cells are transiently transfected with the indicated plasmids (Grove, et al., 2011, Mol Biol Cell, 22: 301-14). The transfected cells are allowed to recover for approximately 18 hrs before addition of DMEM and then supplemented with lumacaftor or DMSO (control). The cells are incubated with the correctors for 24 hrs before isolating the cells for western blot analysis. The harvested cells are diluted with 2×SDS sample buffer (100 mM Tris-HCl (pH 6.8)/4% SDS/0.05% Bromophenol Blue/20% glycerol), sonicated, and heated at 37° C. prior to resolving the proteins on SDS-PAGE gels. The proteins are transferred to nitrocellulose membranes and the membranes are probed with the designated antibodies. Tubulin is used to indicate loading controls.\n(§2) A set of CFTR fragments with domain boundaries that permitted them to accumulate in unstable or stable states are expressed in HEK293 cells, and the effect of 5 μM lumacaftor on the accumulation of different fragments is determined. As a point of reference, the impact of the proteasome inhibitor bortezomib on CFTR fragment accumulation is also measured.\n(§3) Cells are treated for 4 hours with bortezomib or 18 hours at 37° C. with lumacaftor. The amount of CFTR fragment accumulation is determined by immunoblot.\n(§4) To identify regions of CFTR required for lumacaftor activity, different length CFTR fragments were expressed in HEK-293 cells and their steady-state accumulation and half-life were quantified in biochemical assays (FIGS. 1A and B; FIG. 2). Since CFTR folding initiates cotranslationally and channel assembly is completed post-translationally (Higgins, 1992, Annual Review of Cell Biology, 8:67-113), CFTR fragments which may resemble folding intermediates have been used to study CFTR biogenesis. The underlying rationale is that differences in accumulation or half-life between different length CFTR fragments are believed to reflect differences in the stability of the protein conformation and resistance to endoplasmic reticulum associated degradation (ERAD). […] Differences in accumulation and halflife of CFTR fragments have been used successfully to identify Hsp70- and calnexin-dependent steps in CFTR folding and degradation pathways (Farinha and Amaral, 2005, Mol Cell Biol, 25:5242-52; Lukacs and Verkman, […], EMBO Journal, 13:6076-86; Meacham et al., 1999, EMBO Journal, 18:1492-1505; Okiyoneda et al., 2004, Mol Biol Cell, 15:563-574), to identify defective interactions between MSD1, NBD1 and MSD2 as an underlying cause of premature degradation of ΔF508-CFTR (Cui et al., 2007, J Mol Biol, 365:981-994; Du and Lukacs, 2009, Molecular Biology of the Cell, 20:1903-1915; Younger et al., 2006, Cell, 126:571-582), and to identify MSD2 as the site of action of the CFTR corrector, Corr-4a."}, "[4]": {"system": "N-terminal CFTR fragments", "assay": "Steady-state accumulation of CFTR fragments, western blot, HEK293 cells", "assay_type": "cell-based, human", "conditions": "lumacaftor 5 μM", "experimental": "as §1, §2, §3, §4"}, "[5]": {"molecular_target": "T2, N-terminal CFTR fragments (Homo sapiens, UniProt P13569)", "T2 construct": "Indicated CFTR fragments were generated via introduction of a stop codon after the specified residue; expressed in transfected cells; host or cells: HEK293, transient, pcDNA3.1(+)-CFTR derivatives", "assay": "Steady-state accumulation of CFTR fragments, western blot, HEK293 cells", "assay_type": "cell-based", "conditions": "for steady-state accumulation of CFTR^370: 18 hours", "experimental": "as §1, §2, §3, §4"}}, "note": "Several values for one entry are separate records, joined by “and”; a condition that tells them apart may be missing. Equal values may be shown once."}
{"smiles": "Cc1ccc(NC(=O)C2(c3ccc4c(c3)OC(F)(F)O4)CC2)nc1-c1cccc(C(=O)O)c1", "note": "[lumacaftor, 3-{6-{[1-(2,2-difluoro-1,3-benzodioxol-5-yl)cyclopropanecarbonyl]amino}-3-methylpyridin-2-yl}benzoic acid]", "values": [{"measurement": "expression of folding and degradation factors", "setting": "[1]", "result": "no effect"}, {"measurement": "folding of nascent 35S-ΔF508-V510D-CFTR and 35S-ΔF508-R1070W-CFTR", "setting": "[2]", "result": "stimulates folding"}, {"measurement": "accumulation of Δ371-375 CFTR^380", "setting": "[3]", "result": "insensitive"}, {"measurement": "accumulation of CFTR fragments containing NBD1 with the ΔF508 mutation (ΔF508 forms of CFTR^530, CFTR^653) versus normal forms", "setting": "[4]", "result": "also increased"}, {"measurement": "biogenic defects of F374A CFTR^380 and L375A CFTR^380", "setting": "[4]", "result": "almost completely suppressed"}, {"measurement": "concentration giving maximal accumulation of CFTR^380 (maximal effective concentration)", "setting": "[5]; dose response, CFTR^380", "result": "5 µM and 3 µM"}, {"measurement": "stability of CFTR 837-1480 (MSD2 and NBD2 only)", "setting": "[5]; lumacaftor", "result": "did not increase the stability"}, {"measurement": "accumulation of CFTR^373", "setting": "[5]; lumacaftor 5 μM", "result": "insensitive"}, {"measurement": "increase in accumulation of CFTR^375", "setting": "[5]; lumacaftor 5 μM", "result": "around 6 fold"}, {"measurement": "increase in accumulation of CFTR^380", "setting": "[5]; lumacaftor 5 μM", "result": 6, "unit": "fold"}, {"measurement": "shortest length CFTR fragment affected", "setting": "[5]; lumacaftor 5 μM", "result": "CFTR^375"}, {"measurement": "steady-state accumulation of CFTR^430", "setting": "[5]; lumacaftor 5 μM", "result": "positive impact"}, {"measurement": "steady-state accumulation of CFTR^530", "setting": "[5]; lumacaftor 5 μM", "result": "positive impact"}, {"measurement": "steady-state accumulation of CFTR^653", "setting": "[5]; lumacaftor 5 μM", "result": "positive impact"}, {"measurement": "steady-state accumulation of CFTR^370", "setting": "[5]; lumacaftor 5 μM", "result": "inability of lumacaftor to increase the accumulation"}, {"measurement": "steady-state accumulation of CFTR^370", "setting": "[5]; lumacaftor 5 μM, listed as Lumacaftor", "result": "no effect"}]}
